Activity calls are given as the source filed them. The rule behind the calls is not given here.
Legend:
[1] = molecular target: T1, Histone-lysine N-methyltransferase EHMT1 (Homo sapiens) (UniProt Q9H9B1); experiment: (§1) Inhibition of wild type recombinant human histone lysine methyltransferase GLP (951 to 1235 residues) expressed in Escherichia coli Rosetta BL21 DE3 PlysS at 10 uM using ARTKQTARKSTGGKA as substrate preincubated for 5 mins followed by substrate/SAM addition measured after 60 mins by MALDI-TOF MS analysis
T1 sequence (whole entry): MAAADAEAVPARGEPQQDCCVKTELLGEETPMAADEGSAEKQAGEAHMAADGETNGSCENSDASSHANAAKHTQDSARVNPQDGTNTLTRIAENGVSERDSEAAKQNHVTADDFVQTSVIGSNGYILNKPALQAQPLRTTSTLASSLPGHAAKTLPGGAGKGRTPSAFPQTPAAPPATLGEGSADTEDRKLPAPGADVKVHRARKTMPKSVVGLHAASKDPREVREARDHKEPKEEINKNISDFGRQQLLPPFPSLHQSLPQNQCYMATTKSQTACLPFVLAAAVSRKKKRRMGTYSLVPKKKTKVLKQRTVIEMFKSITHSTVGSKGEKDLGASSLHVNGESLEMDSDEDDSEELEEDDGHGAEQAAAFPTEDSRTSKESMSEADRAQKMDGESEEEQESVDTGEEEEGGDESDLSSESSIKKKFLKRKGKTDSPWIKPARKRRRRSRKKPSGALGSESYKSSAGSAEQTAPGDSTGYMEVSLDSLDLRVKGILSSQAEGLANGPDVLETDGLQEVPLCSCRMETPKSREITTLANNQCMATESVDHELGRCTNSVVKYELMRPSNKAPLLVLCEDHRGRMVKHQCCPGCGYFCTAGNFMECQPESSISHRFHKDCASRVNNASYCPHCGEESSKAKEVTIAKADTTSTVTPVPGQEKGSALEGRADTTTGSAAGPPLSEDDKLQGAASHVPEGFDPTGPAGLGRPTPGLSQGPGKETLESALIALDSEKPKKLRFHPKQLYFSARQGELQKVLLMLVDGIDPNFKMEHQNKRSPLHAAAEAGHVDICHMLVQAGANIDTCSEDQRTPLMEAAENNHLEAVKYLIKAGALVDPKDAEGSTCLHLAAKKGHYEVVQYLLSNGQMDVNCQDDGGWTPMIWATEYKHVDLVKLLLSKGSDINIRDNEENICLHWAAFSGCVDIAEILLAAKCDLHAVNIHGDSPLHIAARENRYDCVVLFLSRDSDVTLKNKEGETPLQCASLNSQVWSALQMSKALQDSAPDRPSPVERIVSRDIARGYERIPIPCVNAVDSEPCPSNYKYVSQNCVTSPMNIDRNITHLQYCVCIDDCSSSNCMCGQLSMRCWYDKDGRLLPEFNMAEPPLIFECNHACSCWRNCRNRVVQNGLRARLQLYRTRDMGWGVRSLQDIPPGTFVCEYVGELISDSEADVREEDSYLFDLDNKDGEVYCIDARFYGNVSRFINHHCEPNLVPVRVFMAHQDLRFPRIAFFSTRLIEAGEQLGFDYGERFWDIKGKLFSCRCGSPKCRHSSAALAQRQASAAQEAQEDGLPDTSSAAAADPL

[2] = molecular target: T2, Histone-lysine N-methyltransferase EHMT2 (Homo sapiens) (UniProt Q96KQ7); experiment: as §1, with “G9a (913” for “GLP (951”, “1193” for “1235”
T2 sequence (whole entry): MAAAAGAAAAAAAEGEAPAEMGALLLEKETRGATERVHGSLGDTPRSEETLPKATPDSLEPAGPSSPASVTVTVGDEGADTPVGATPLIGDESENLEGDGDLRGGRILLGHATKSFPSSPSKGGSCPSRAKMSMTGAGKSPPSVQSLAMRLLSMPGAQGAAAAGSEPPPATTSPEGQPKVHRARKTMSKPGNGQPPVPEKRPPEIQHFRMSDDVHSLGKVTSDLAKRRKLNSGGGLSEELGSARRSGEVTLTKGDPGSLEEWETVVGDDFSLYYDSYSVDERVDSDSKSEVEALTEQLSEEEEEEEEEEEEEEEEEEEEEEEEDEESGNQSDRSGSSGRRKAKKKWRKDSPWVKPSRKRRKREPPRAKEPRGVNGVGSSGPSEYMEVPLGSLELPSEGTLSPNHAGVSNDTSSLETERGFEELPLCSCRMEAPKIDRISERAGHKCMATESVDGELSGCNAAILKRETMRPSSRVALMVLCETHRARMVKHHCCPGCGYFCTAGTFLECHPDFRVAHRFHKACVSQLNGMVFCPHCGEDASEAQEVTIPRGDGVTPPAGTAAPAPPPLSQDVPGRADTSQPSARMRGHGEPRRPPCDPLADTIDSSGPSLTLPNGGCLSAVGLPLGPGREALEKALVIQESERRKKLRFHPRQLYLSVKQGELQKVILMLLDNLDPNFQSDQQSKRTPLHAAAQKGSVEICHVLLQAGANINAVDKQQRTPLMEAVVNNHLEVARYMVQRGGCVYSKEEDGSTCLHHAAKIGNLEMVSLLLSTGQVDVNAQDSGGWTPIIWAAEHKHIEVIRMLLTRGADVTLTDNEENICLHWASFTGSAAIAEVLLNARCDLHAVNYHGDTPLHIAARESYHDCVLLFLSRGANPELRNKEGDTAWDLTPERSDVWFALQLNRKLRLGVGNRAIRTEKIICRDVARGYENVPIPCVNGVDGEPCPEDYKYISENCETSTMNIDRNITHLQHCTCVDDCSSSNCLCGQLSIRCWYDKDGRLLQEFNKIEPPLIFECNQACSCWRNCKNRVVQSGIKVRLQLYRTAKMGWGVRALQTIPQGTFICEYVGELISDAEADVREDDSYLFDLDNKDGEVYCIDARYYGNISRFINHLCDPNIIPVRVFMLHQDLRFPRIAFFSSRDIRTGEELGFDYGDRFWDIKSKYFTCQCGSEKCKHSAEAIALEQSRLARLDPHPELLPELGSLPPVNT

[3] = molecular target: T3, Histone-lysine N-methyltransferase EHMT1 (Homo sapiens, UniProt Q9H9B1); experiment: Inhibition of wild type recombinant human histone lysine methyltransferase GLP (951 to 1235 residues) expressed in Escherichia coli Rosetta BL21 DE3 PlysS using ARTKQTARKSTGGKA as substrate preincubated for 5 mins followed by substrate/SAM addition measured after 60 mins by MALDI-TOF MS analysis
T3 sequence (Q9H9B1 whole entry): T1 sequence (whole entry)

[4] = molecular target: T2, Histone-lysine N-methyltransferase EHMT2 (Homo sapiens); experiment: Induction of wild type recombinant human histone lysine methyltransferase G9a (913 to 1193 residues) protein unfolding at 100 uM by circular dichroism analysis
[5] = molecular target: T1, Histone-lysine N-methyltransferase EHMT1 (Homo sapiens); experiment: Inhibition of wild type recombinant human histone lysine methyltransferase GLP (951 to 1235 residues) expressed in Escherichia coli Rosetta BL21 DE3 PlysS assessed as zinc ions ejection from Cys4-Zn finger at 100 uM by FluoZin-3 based fluorescence assay
[6] = molecular target: T2, Histone-lysine N-methyltransferase EHMT2 (Homo sapiens); experiment: Inhibition of wild type recombinant human histone lysine methyltransferase G9a (913 to 1193 residues) expressed in Escherichia coli Rosetta BL21 DE3 PlysS assessed as zinc ions ejection from Cys4-Zn finger at 100 uM by FluoZin-3 based fluorescence assay

Structure (SMILES) | inhibition [1] | inhibition [2] | IC50 [3] [nM] | Activity [4] | inhibition [5] | inhibition [6]
CCN(CC)C(=S)SSC(=S)N(CC)CC | inactive | inactive | 1600 | Active | Active | Active
O=c1c2ccccc2[se]n1-c1ccccc1 [EBSELEN] | inactive | inactive | 730 | Active | Active | Active
